The record followed here is ChEMBL document CHEMBL1201862, “PubChem BioAssay data set” (2004).

SMILES strings stand for the structures.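 These data come from cells grown in 96-well plates and exposed to compound for 48 hours at five concentrations. GI50 = concentration required for 50% inhibition of growth.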 Calls of active or inactive are those of the source. No stated cut-off is given here; in the data, active = GI50 up to about 1.1 µM and inactive = higher.

Test systems include SF-268; PC-3; SNB-19; NCI-H460; A549; LOX IMVI; SR; NCI-H522; SNB-75; T47D; A498; MOLT-4; DU-145; UACC-257; HOP-92; Malme-3M; HT-29; NCI-H226; SN12C; SW-620.
Assay in all cases: NCI tumour cell line growth inhibition, 48 h

`O=C1Oc2ccccc2C(=O)/C1=C/N1C(=O)N/C(=C\c2ccccc2O)C1=O`: the GI50 is > 81.1 µM (inactive) with SF-268; 43.6 µM (inactive) in the test on PC-3; > 100 µM (inactive) in the test on SNB-19; 35.2 µM (inactive) in the test on NCI-H460; 58.9 µM (inactive) in the test on A549; 34.1 µM (inactive) in the test on LOX IMVI. Further, the GI50 is 32.3 µM (inactive) in the test with SR; 55.5 µM (inactive) with NCI-H522; > 78.5 µM (inactive) with SNB-75; 34.2 µM (inactive) in the test on T47D; 42.6 µM (inactive) in the test on A498; 41.2 µM (inactive) in the test with MOLT-4. The GI50 was 46.3 µM (inactive) in the test on DU-145; 67.5 µM (inactive) in the test with UACC-257; 11 µM (inactive) in the test with HOP-92; > 100 µM (inactive) in the test on Malme-3M; 54.7 µM (inactive) in the test with HT-29; 81.1 µM (inactive) in the test with NCI-H226. Moreover, the values for the GI50 in the test with SN12C and in the test with SW-620 were 53.6 µM (inactive) and > 90.8 µM (inactive), respectively.

As to `O=C(O)c1nc2ccccc2nc1Nc1ccc(F)cc1`, the GI50 in the test with SF-268 was 22.9 µM (inactive); in the test with PC-3, 27.9 µM (inactive); with SNB-19, 30.8 µM (inactive); in the test on NCI-H460 it was 34 µM (inactive); with A549, 33.4 µM (inactive); in the test with LOX IMVI it was 34.1 µM (inactive). Moreover, the GI50 in the test with SR is 32.7 µM (inactive); in the test on NCI-H522 it was 25.1 µM (inactive); in the test with SNB-75 it was 24.8 µM (inactive); in the test on T47D, 28.4 µM (inactive); in the test on A498, 40 µM (inactive); in the test on MOLT-4 it was 28.3 µM (inactive). In addition, the GI50 was 33.7 µM (inactive) in the test with DU-145; 29.6 µM (inactive) in the test with UACC-257; 27.1 µM (inactive) in the test with HOP-92; 37.9 µM (inactive) in the test with Malme-3M; 42.1 µM (inactive) with HT-29; 23.7 µM (inactive) in the test with NCI-H226. The GI50 with SW-620 was 38.5 µM (inactive).

Take `COC(=O)C#Cc1ccc([N+](=O)[O-])cc1`: the GI50 in the test on SF-268 is 4.16 µM (inactive); with PC-3 it was 3.73 µM (inactive); with SNB-19, 2.75 µM (inactive); with NCI-H460, 13.1 µM (inactive); in the test on A549, 2.74 µM (inactive); with LOX IMVI, 0.995 µM (active). The GI50 with SR is 0.325 µM (active); with NCI-H522, 1.75 µM (inactive); in the test with SNB-75 it was 3.14 µM (inactive); in the test on T47D it was 1.45 µM (inactive); in the test on A498, 9.91 µM (inactive); with MOLT-4 it was 0.659 µM (active). Further, the GI50 with DU-145 was 1.76 µM (inactive); in the test with UACC-257, 2.37 µM (inactive); in the test with HOP-92 it was 2.05 µM (inactive); in the test on Malme-3M, 2.27 µM (inactive); in the test on HT-29, 1.6 µM (inactive); with NCI-H226, 2.47 µM (inactive). The GI50 in the test with SN12C was 1.67 µM (inactive); with SW-620, 1.19 µM (inactive).

On to `COc1ccc(OC)c(N(CN2C(=O)CCC2C(=O)O)C(C)=O)c1` (configuration not stated), for which the GI50 with SF-268 was > 100 µM (inactive); with PC-3, > 100 µM (inactive); with SNB-19, > 100 µM (inactive); with NCI-H460 it was > 10 µM (inactive); with A549, > 100 µM (inactive); in the test on LOX IMVI it was > 100 µM (inactive). The GI50 with SR, with NCI-H522, in the test on SNB-75, with T47D, in the test on A498 and in the test on MOLT-4 was > 100 µM (inactive) in each case. Besides, the GI50 with DU-145, in the test on UACC-257, with HOP-92, in the test with Malme-3M, in the test with HT-29 and in the test on NCI-H226 was > 100 µM (inactive) in each case. In addition, the GI50 with SN12C and in the test with SW-620 was > 100 µM (inactive) in each case.

With `O=c1cc(NNc2ccccc2F)[nH]c(=O)[nH]1`, the GI50 in the test with SF-268 was 19.4 µM (inactive); in the test on PC-3 it was 18.9 µM (inactive); in the test on SNB-19, > 100 µM (inactive); in the test with NCI-H460, 0.0667 µM (active); with A549 it was 55 µM (inactive); with LOX IMVI, 16 µM (inactive). Moreover, the GI50 in the test with SR was 1.35 µM (inactive); in the test on NCI-H522 it was 16.2 µM (inactive); in the test with SNB-75, 25.9 µM (inactive); with T47D, 0.679 µM (active); with A498 it was 59.8 µM (inactive); in the test on MOLT-4, 23.4 µM (inactive). Also, the GI50 in the test with DU-145 was 43.3 µM (inactive); in the test with UACC-257, 17.7 µM (inactive); with HOP-92, 15.7 µM (inactive); in the test on Malme-3M it was 18.8 µM (inactive); in the test on HT-29 it was 17.9 µM (inactive); in the test on NCI-H226, 21.2 µM (inactive). The GI50 in the test with SW-620 is 18 µM (inactive).

`CCN(CC)P1(=S)Oc2ccc3ccccc3c2-c2c(ccc3ccccc23)O1`: the GI50 was > 100 µM (inactive) in the test on PC-3; > 100 µM (inactive) with SNB-19; > 100 µM (inactive) with NCI-H460; > 100 µM (inactive) with A549; > 100 µM (inactive) in the test with LOX IMVI; 27.4 µM (inactive) with SR. In addition, the GI50 with NCI-H522 is 60.1 µM (inactive); in the test with SNB-75, 32.2 µM (inactive); in the test with T47D, 22.5 µM (inactive); in the test on A498 it was > 100 µM (inactive); in the test with MOLT-4, > 100 µM (inactive); in the test on DU-145 it was > 100 µM (inactive). The GI50 with UACC-257 is > 100 µM (inactive); with HOP-92 it was > 100 µM (inactive); in the test with Malme-3M, 72.8 µM (inactive); with HT-29 it was 18.5 µM (inactive); in the test with NCI-H226, > 100 µM (inactive); in the test with SN12C, > 100 µM (inactive). Besides, the GI50 with SW-620 is > 100 µM (inactive).

In the case of `Cc1cc(NC(=O)NC(=O)c2ccccc2N)ccc1Oc1ncc(Br)cn1`, the GI50 was 0.0163 µM (active) with SF-268; < 0.01 µM (active) with PC-3; < 0.0137 µM (active) in the test on SNB-19; < 0.0112 µM (active) in the test with NCI-H460; 0.0112 µM (active) with A549; 0.0139 µM (active) with LOX IMVI. The GI50 with SR was < 0.0631 µM (active); in the test with NCI-H522 it was < 0.01 µM (active); with SNB-75 it was 0.0117 µM (active); in the test on T47D, 0.359 µM (active); in the test on A498, < 0.0802 µM (active); in the test with MOLT-4 it was < 0.0135 µM (active). Besides, the GI50 is 0.0125 µM (active) with DU-145; 0.0655 µM (active) in the test on UACC-257; 0.0159 µM (active) with HOP-92; < 0.01 µM (active) in the test on Malme-3M; < 0.0103 µM (active) with HT-29; 0.0702 µM (active) in the test on NCI-H226. Besides, the GI50 in the test with SN12C is 0.0583 µM (active); in the test on SW-620, < 0.0103 µM (active).

Consider `Cc1nc2sc3ccccc3n2c(=O)c1/N=N/c1ccc(Br)cc1`, for which the GI50 in the test on SF-268 was 70.5 µM (inactive); in the test with PC-3, 51.5 µM (inactive); in the test with SNB-19, > 100 µM (inactive); with NCI-H460 it was > 100 µM (inactive); in the test with A549, > 100 µM (inactive); in the test with LOX IMVI, 54.8 µM (inactive). For the same molecule, the GI50 with SR is 82.6 µM (inactive); in the test with NCI-H522, 38.5 µM (inactive); in the test on SNB-75, > 100 µM (inactive); in the test on T47D it was 90.8 µM (inactive); in the test on A498 it was 43.3 µM (inactive); in the test with MOLT-4 it was 55.8 µM (inactive). The GI50 in the test on DU-145 is > 100 µM (inactive); in the test with UACC-257, > 100 µM (inactive); with HOP-92, 76.4 µM (inactive); in the test with Malme-3M it was > 100 µM (inactive); in the test with HT-29, > 100 µM (inactive); with NCI-H226, 44.8 µM (inactive). Further, the GI50 in the test with SN12C and with SW-620 was > 100 µM (inactive) throughout.

`C/C=N\n1c(C)n[nH]c1=O`: the GI50 with SF-268, with PC-3, with SNB-19, in the test with NCI-H460, with A549 and with LOX IMVI was > 100 µM (inactive) each time. The GI50 in the test on SR, in the test with NCI-H522, with SNB-75, in the test on T47D, with A498 and in the test with MOLT-4 was > 100 µM (inactive) throughout. Moreover, the GI50 in the test with DU-145, in the test on UACC-257, with HOP-92, with Malme-3M, with HT-29 and in the test with NCI-H226 was > 100 µM (inactive) each time. Besides, the GI50 in the test on SN12C and in the test on SW-620 was > 100 µM (inactive) throughout.

For the molecule `CCCCCc1c(Cl)nc(Cl)nc1Cl`, the GI50 was 11.1 µM (inactive) with SF-268; 8.99 µM (inactive) in the test with PC-3; 15.7 µM (inactive) with SNB-19; 19.5 µM (inactive) in the test with NCI-H460; 39.7 µM (inactive) in the test with A549; 0.471 µM (active) with LOX IMVI. Further, the GI50 was 0.157 µM (active) in the test with SR; 0.625 µM (active) in the test with NCI-H522; 0.589 µM (active) in the test with SNB-75; 19.4 µM (inactive) with T47D; 20.1 µM (inactive) in the test on A498; 0.303 µM (active) with MOLT-4. The GI50 in the test on DU-145 is 21.7 µM (inactive); in the test on UACC-257 it was 13.9 µM (inactive); with HOP-92 it was 5.46 µM (inactive); in the test on Malme-3M, 2.59 µM (inactive); in the test with HT-29, 3.59 µM (inactive); in the test on NCI-H226 it was 2 µM (inactive). Moreover, the results for the GI50 in the test with SN12C and with SW-620 were 3.1 µM (inactive) and 3.63 µM (inactive), respectively.
